Where a name gives a salt, the structure may show the parent alone.
biological target: cloned human NR1/NR2B ion channels (Homo sapiens (Human), UniProt Q05586+Q13224); assay: HNR2BC: effects of test articles on cloned human NR1/NR2B ion channels expressed in mammalian cells (FLIPR calcium flux); type: cell-based; settings: cloned human NR1/NR2B, Table 5
Method in brief: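 In a stable Tet-On-induced cell line expressing human GluN1/GluN2B, Calcium 5-loaded cells were preincubated 5 min with compound, then stimulated 5 min with glutamate at ~EC80 plus 10 μM glycine, in pH 7.4 HEPES buffer. FLIPR calcium fluorescence was normalized to control wells.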

cloned human NR1/NR2B ion channels, sequence (Q13224 27-1484, other chains not shown): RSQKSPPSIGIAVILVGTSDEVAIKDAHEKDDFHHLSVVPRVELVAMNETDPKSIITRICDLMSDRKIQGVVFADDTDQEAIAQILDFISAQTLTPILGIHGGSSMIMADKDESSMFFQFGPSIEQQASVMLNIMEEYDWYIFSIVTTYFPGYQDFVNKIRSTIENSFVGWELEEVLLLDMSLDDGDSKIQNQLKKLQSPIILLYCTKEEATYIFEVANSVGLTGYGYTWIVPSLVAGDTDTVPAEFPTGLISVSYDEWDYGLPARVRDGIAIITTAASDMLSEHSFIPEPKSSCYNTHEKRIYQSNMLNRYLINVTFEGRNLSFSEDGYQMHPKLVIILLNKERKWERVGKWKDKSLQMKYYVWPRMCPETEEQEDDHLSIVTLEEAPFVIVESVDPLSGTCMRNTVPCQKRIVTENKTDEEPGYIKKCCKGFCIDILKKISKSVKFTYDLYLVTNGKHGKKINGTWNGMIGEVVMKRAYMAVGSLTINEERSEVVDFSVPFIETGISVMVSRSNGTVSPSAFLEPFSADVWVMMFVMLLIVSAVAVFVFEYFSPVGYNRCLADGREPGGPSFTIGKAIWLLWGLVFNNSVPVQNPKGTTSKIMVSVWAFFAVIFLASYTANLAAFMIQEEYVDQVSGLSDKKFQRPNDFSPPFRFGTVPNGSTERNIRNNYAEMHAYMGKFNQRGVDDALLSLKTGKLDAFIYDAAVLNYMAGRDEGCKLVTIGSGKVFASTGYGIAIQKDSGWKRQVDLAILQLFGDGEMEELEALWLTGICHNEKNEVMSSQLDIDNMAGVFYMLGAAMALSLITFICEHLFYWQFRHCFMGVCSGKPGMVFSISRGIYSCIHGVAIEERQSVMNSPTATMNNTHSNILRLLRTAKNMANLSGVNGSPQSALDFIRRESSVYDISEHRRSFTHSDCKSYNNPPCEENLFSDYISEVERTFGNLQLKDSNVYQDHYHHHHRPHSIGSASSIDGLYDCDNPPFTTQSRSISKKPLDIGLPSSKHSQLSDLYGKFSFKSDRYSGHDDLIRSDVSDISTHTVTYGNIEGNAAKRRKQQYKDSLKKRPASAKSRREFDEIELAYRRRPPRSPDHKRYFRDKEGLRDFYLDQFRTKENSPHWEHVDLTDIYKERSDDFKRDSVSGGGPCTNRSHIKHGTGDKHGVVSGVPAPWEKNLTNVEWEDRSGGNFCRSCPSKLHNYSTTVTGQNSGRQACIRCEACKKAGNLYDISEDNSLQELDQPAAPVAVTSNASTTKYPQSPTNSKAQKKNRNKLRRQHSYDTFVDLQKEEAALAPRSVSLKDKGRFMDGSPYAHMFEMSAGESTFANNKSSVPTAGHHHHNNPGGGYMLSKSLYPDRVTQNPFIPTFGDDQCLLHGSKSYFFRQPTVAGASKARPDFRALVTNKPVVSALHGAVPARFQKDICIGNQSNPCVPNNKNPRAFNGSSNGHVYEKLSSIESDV

Q: For `CCc1cccc(-c2cnc3ccn(CC(=O)N4CC(F)C4)c3c2)c1` [Example 268, 2-[6-(3-Ethylphenyl)pyrrolo[3,2-b]pyridin-1-yl]-1-(3-fluoroazetidin-1-yl)ethanone trifluoroacetate salt], which IC50 is on record?
A: 0.0794 µM

Q: How did the IC50 turn out when `Cc1cccc(-c2cnc3ccn(CC(=O)N4CC(F)(F)C4)c3c2)c1` [Example 269, 1-(3,3-Difluoroazetidin-1-yl)-2-[6-(m-tolyl)pyrrolo[3,2-b]pyridin-1-yl]ethanone] was run?
A: 0.0631 µM

Q: How did the IC50 turn out when `O=C(Cn1ccc2ncc(-c3ccccc3)cc21)N1CC(F)C1` [Example 270, 1-(3-Fluoroazetidin-1-yl)-2-(6-phenylpyrrolo[3,2-b]pyridin-1-yl)ethanone] was run?
A: 0.0398 µM

Q: With `Cc1c(F)ccc(-c2cnc3c(F)cn(CC(=O)N4CC(F)(F)C4)c3c2)c1F` [Example 271, 1-(3,3-Difluoroazetidin-1-yl)-2-[6-(2,4-difluoro-3-methyl-phenyl)-3-fluoro-pyrrolo[3,2-b]pyridin-1-yl]ethanone] as the molecule, how does the IC50 read?
A: 0.0794 µM

Q: For `Cc1cc(-c2cnc3ccn(CC(=O)N4CC(O)C4)c3c2)ccc1F` [Example 273, 2-[6-(4-Fluoro-3-methyl-phenyl)pyrrolo[3,2-b]pyridin-1-yl]-1-(3-hydroxyazetidine-1-yl)ethanone], which IC50 is on record?
A: 1 µM

Q: Which IC50 does the source give for `CO/N=C(/Cn1ccc2ncc(-c3ccc(F)c(C)c3)cc21)C1CC1` [Example 276, 1-Cyclopropyl-2-[6-(4-fluoro-3-methyl-phenyl)pyrrolo[3,2-b]pyridin-1-yl]-N-methoxy-ethanimine] here?
A: 0.501 µM

Q: How did the IC50 turn out when `O=C(Cn1ccc2ncc(-c3cccs3)cc21)N1CC(F)C1` [Example 277, 1-(3-Fluoroazetidin-1-yl)-2-[6-(2-thienyl)pyrrolo[3,2-b]pyridin-1-yl]ethanone] was run?
A: 3.16 µM

Q: For `O=C(Cn1ccc2ncc(-c3cccs3)cc21)N1CCCC1` [Example 278, 1-Pyrrolidin-1-yl-2-[6-(2-thienyl)pyrrolo[3,2-b]pyridin-1-yl]ethanone], which IC50 is on record?
A: 0.251 µM

Q: For `Cc1ccc(-c2cnc3ccn(CC(=O)N4CC(F)(F)C4)c3c2)s1` [Example 279, 1-(3,3-Difluoroazetidin-1-yl)-2-[6-(5-methyl-2-thienyl)pyrrolo[3,2-b]pyridin-1-yl]ethanone], which IC50 is on record?
A: 0.251 µM

Q: How did the IC50 turn out when `Cc1ccc(-c2cnc3ccn(CC(=O)N4CC(F)C4)c3c2)s1` [Example 280, 1-(3-Fluoroazetidin-1-yl)-2-[6-(5-methyl-2-thienyl)pyrrolo[3,2-b]pyridin-1-yl]ethanone] was run?
A: 0.0316 µM

Q: `CCc1ccc(-c2cnc3ccn(CC(=O)N4CC(F)C4)c3c2)s1` [Example 281, 2-[6-(5-Ethyl-2-thienyl)pyrrolo[3,2-b]pyridin-1-yl]-1-(3-fluoroazetidin-1-yl)ethanone] was tested. Which IC50 did it give?
A: 0.02 µM

Q: How did the IC50 turn out when `CCc1ccc(-c2cnc3ccn(CC(=O)N4CCCC4)c3c2)s1` [Example 282, 2-[6-(5-Ethyl-2-thienyl)pyrrolo[3,2-b]pyridin-1-yl]-1-pyrrolidin-1-yl-ethanone] was run?
A: 0.0794 µM

Q: With `Cc1ccc(-c2cnc3ccn(CC(=O)N4CCCC4)c3c2)s1` [Example 283, 2-[6-(5-Methyl-2-thienyl)pyrrolo[3,2-b]pyridin-1-yl]-1-pyrrolidin-1-yl-ethanone] as the molecule, how does the IC50 read?
A: 0.2 µM

Q: With `CCc1ccc(-c2cnc3ccn(CC(=O)N4CC(F)(F)C4)c3c2)s1` [Example 284, 1-(3,3-Difluoroazetidin-1-yl)-2-[6-(5-ethyl-2-thienyl)pyrrolo[3,2-b]pyridin-1-yl]ethanone] as the molecule, how does the IC50 read?
A: 0.1 µM

Q: How did the IC50 turn out when `O=C(Cn1ccc2ncc(-c3cc(Cl)cs3)cc21)N1CC(F)C1` [Example 285, 2-[6-(4-Chloro-2-thienyl)pyrrolo[3,2-b]pyridin-1-yl]-1-(3-fluoroazetidin-1-yl)ethanone] was run?
A: 0.158 µM

Q: Which IC50 does the source give for `Cc1cc(-c2cnc3ccn(C/C(=N/O)C4CC4)c3c2)ccc1F` [Example 286, 1-Cyclopropyl-2-[6-(4-fluoro-3-methyl-phenyl)pyrrolo[3,2-b]pyridin-1-yl]ethanone oxime trifluoroacetate salt] here?
A: 0.158 µM

Q: `O=C(Cn1ccc2ncc(-c3ccc(Cl)s3)cc21)N1CCCC1` [Example 287, 2-[6-(5-Chloro-2-thienyl)pyrrolo[3,2-b]pyridin-1-yl]-1-pyrrolidin-1-yl-ethanone] was tested. Which IC50 did it give?
A: 0.631 µM

Q: With `O=C(Cn1ccc2ncc(-c3cc(Cl)cs3)cc21)N1CCCC1` [Example 288, 2-[6-(4-Chloro-2-thienyl)pyrrolo[3,2-b]pyridin-1-yl]-1-pyrrolidin-1-yl-ethanone] as the molecule, how does the IC50 read?
A: 0.02 µM

Q: How did the IC50 turn out when `COC1CN(C(=O)Cn2ccc3ncc(-c4ccc(F)c(C)c4)cc32)C1` [Example 290, 2-[6-(4-Fluoro-3-methyl-phenyl)pyrrolo[3,2-b]pyridin-1-yl]-1-(3-methoxyazetidin-1-yl)ethanone] was run?
A: 0.631 µM

Q: How did the IC50 turn out when `COCCn1ccc2ncc(-c3ccc(F)c(C)c3)cc21` [Example 291, 6-(4-Fluoro-3-methyl-phenyl)-1-(2-methoxyethyl)pyrrolo[3,2-b]pyridine trifluoroacetate salt] was run?
A: 0.0794 µM

Q: How did the IC50 turn out when `O=C(Cn1ccc2ncc(-c3cccc(F)c3)cc21)C1CCC1` [Example 292, 1-Cyclobutyl-2-[6-(3-fluorophenyl)pyrrolo[3,2-b]pyridin-1-yl]ethanone] was run?
A: 1.26 µM

Q: `O=C(Cn1ccc2ncc(-c3ccc(F)cc3)cc21)N1CC[C@H](F)C1` [Example 294, 2-[6-(4-Fluorophenyl)pyrrolo[3,2-b]pyridin-1-yl]-1-[(3S)-3-fluoropyrrolidin-1-yl]ethanone trifluoroacetate salt] was tested. Which IC50 did it give?
A: 0.316 µM

Q: How did the IC50 turn out when `CCC(=O)Cn1ccc2ncc(-c3ccc(F)c(C)c3)cc21` [Example 295, 1-[6-(4-Fluoro-3-methyl-phenyl)pyrrolo[3,2-b]pyridin-1-yl]butan-2-one trifluoroacetate salt] was run?
A: 0.316 µM

Q: Which IC50 does the source give for `CCN(C)C(=O)Cn1ccc2ncc(-c3ccc(F)c(C)c3)cc21` [Example 296, N-Ethyl-2-[6-(4-fluoro-3-methyl-phenyl)pyrrolo[3,2-b]pyridin-1-yl]-N-methyl-acetamide] here?
A: 0.0251 µM

Q: How did the IC50 turn out when `CCN(CC)C(=O)Cn1ccc2ncc(-c3ccc(F)c(C)c3)cc21` [Example 297, N,N-Diethyl-2-[6-(4-fluoro-3-methyl-phenyl)pyrrolo[3,2-b]pyridin-1-yl]acetamide] was run?
A: 0.0398 µM

Q: For `O=C(Cn1cc(Cl)c2ncc(-c3cccc(C(F)(F)F)c3)cc21)N1CCC1` [Example 298, 1-(Azetidin-1-yl)-2-[3-chloro-6-[3-(trifluoromethyl)phenyl]pyrrolo[3,2-b]pyridin-1-yl]ethanone], which IC50 is on record?
A: 0.501 µM

Q: With `Cc1cccc(-c2cnc3c(Cl)cn(CC(=O)C4CC4)c3c2)c1` [Example 299, 2-[3-Chloro-6-(m-tolyl)pyrrolo[3,2-b]pyridin-1-yl]-1-cyclopropyl-ethanone] as the molecule, how does the IC50 read?
A: 0.0501 µM

Q: How did the IC50 turn out when `O=C(Cn1cc(Cl)c2ncc(-c3ccccc3)cc21)C1CC1` [Example 300, 2-(3-Chloro-6-phenyl-pyrrolo[3,2-b]pyridin-1-yl)-1-cyclopropyl-ethanone] was run?
A: 0.02 µM

Q: For `O=C(Cn1cc(Cl)c2ncc(-c3cc(F)c(F)c(F)c3)cc21)N1CCC1` [Example 301, 1-(Azetidin-1-yl)-2-[3-chloro-6-(3,4,5-trifluorophenyl)pyrrolo[3,2-b]pyridin-1-yl]ethanone], which IC50 is on record?
A: 0.02 µM

Q: For `O=C(Cn1cc(F)c2ncc(-c3ccc(F)cc3)cc21)N1CCC1` [Example 302, 1-(Azetidin-1-yl)-2-[3-fluoro-6-(4-fluorophenyl)pyrrolo[3,2-b]pyridin-1-yl]ethanone], which IC50 is on record?
A: 0.0316 µM

Q: Which IC50 does the source give for `Cc1cc(C)cc(-c2cnc3c(Cl)cn(CC(=O)N4CCC4)c3c2)c1` [Example 303, 1-(Azetidin-1-yl)-2-[3-chloro-6-(3,5-dimethylphenyl)pyrrolo[3,2-b]pyridin-1-yl]ethanone] here?
A: 0.0398 µM

Q: `Cc1cc(-c2cnc3c(F)cn(CC(=O)N4CCOCC4)c3c2)ccc1F` [Example 304, 2-[3-Fluoro-6-(4-fluoro-3-methyl-phenyl)pyrrolo[3,2-b]pyridin-1-yl]-1-morpholino-ethanone] was tested. Which IC50 did it give?
A: 0.158 µM

Q: Which IC50 does the source give for `O=C(Cn1cc(F)c2ncc(-c3ccc(F)cc3)cc21)N1CCOCC1` [Example 305, 2-[3-Fluoro-6-(4-fluorophenyl)pyrrolo[3,2-b]pyridin-1-yl]-1-morpholino-ethanone] here?
A: 0.0794 µM

Q: For `O=C(Cn1cc(F)c2ncc(-c3cc(F)c(F)c(F)c3)cc21)N1CC(F)C1` [Example 306, 1-(3-Fluoroazetidin-1-yl)-2-[3-fluoro-6-(3,4,5-trifluorophenyl)pyrrolo[3,2-b]pyridin-1-yl]ethanone], which IC50 is on record?
A: 0.398 µM

Q: For `Cc1cc(-c2cnc3c(F)cn(CC(=O)N4CC(F)C4)c3c2)ccc1F` [Example 307, 1-(3-Fluoroazetidin-1-yl)-2-[3-fluoro-6-(4-fluoro-3-methyl-phenyl)pyrrolo[3,2-b]pyridin-1-yl]ethanone], which IC50 is on record?
A: 0.0398 µM

Q: How did the IC50 turn out when `O=C(Cn1cc(F)c2ncc(-c3ccc(F)cc3)cc21)N1CC(F)C1` [Example 308, 1-(3-Fluoroazetidin-1-yl)-2-[3-fluoro-6-(4-fluorophenyl)pyrrolo[3,2-b]pyridin-1-yl]ethanone] was run?
A: 0.0631 µM

Q: How did the IC50 turn out when `Cc1csc(-c2cnc3c(F)cn(CC(=O)N4CC(F)C4)c3c2)c1` [Example 309, 1-(3-Fluoroazetidin-1-yl)-2-[3-fluoro-6-(4-methyl-2-thienyl)pyrrolo[3,2-b]pyridin-1-yl]ethanone] was run?
A: 0.2 µM

Q: `O=C(Cn1cc(F)c2ncc(-c3cccc(C(F)F)c3)cc21)N1CC(F)C1` [Example 310, 2-[6-[3-(Difluoromethyl)phenyl]-3-fluoro-pyrrolo[3,2-b]pyridin-1-yl]-1-(3-fluoroazetidin-1-yl)ethanone] was tested. Which IC50 did it give?
A: 0.0501 µM

Q: `O=C(Cn1cc(F)c2ncc(-c3ccc(F)c(F)c3)cc21)N1CC(F)C1` [Example 311, 2-[6-(3,4-Difluorophenyl)-3-fluoro-pyrrolo[3,2-b]pyridin-1-yl]-1-(3-fluoroazetidin-1-yl)ethanone] was tested. Which IC50 did it give?
A: 0.0631 µM

Q: How did the IC50 turn out when `O=C(Cn1cc(Cl)c2ncc(-c3ccc(F)c(F)c3F)cc21)N1CCC1` [Example 312, 1-(Azetidin-1-yl)-2-[3-chloro-6-(2,3,4-trifluorophenyl)pyrrolo[3,2-b]pyridin-1-yl]ethanone] was run?
A: 0.158 µM
